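48-hour exposure; five concentrations; linearly interpolated endpoints. The concentration for 50% growth inhibition is given as GI50.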 Active and inactive are the calls of the source. No stated cut-off is given here; in the data, active = GI50 up to about 1.1 µM and inactive = higher.
Assays:
Assay in all cases: growth of human tumour cells (NCI), 48 h
KM12 = system: KM12
SNB-75 = system: SNB-75
HL-60 = system: HL-60
ACHN = system: ACHN
UACC-257 = system: UACC-257
HCC 2998 = system: HCC 2998
SK-MEL-2 = system: SK-MEL-2
786-0 = system: 786-0
NCI/ADR-RES = system: NCI/ADR-RES
CAKI-1 = system: CAKI-1
SF-295 = system: SF-295
NCI-H522 = system: NCI-H522
DU-145 = system: DU-145
TK-10 = system: TK-10
SW-620 = system: SW-620
EKVX = system: EKVX
A549 = system: A549
SR = system: SR
HOP-62 = system: HOP-62
SF-268 = system: SF-268
NCI-H23 = system: NCI-H23
HCT-116 = system: HCT-116
CCRF-CEM = system: CCRF-CEM
HOP-92 = system: HOP-92
UACC-62 = system: UACC-62
MCF7 = system: MCF7
OVCAR-5 = system: OVCAR-5
PC-3 = system: PC-3
Malme-3M = system: Malme-3M
SN12C = system: SN12C
RXF 393 = system: RXF 393
SNB-19 = system: SNB-19
Hs-578T = system: Hs-578T
BT-549 = system: BT-549
HCT-15 = system: HCT-15
NCI-H460 = system: NCI-H460
U-251 = system: U-251
SK-MEL-28 = system: SK-MEL-28
OVCAR-3 = system: OVCAR-3
A498 = system: A498
RPMI-8226 = system: RPMI-8226
HT-29 = system: HT-29
NCI-H226 = system: NCI-H226
SK-OV-3 = system: SK-OV-3
MDA-MB-435 = system: MDA-MB-435
MDA-N = system: MDA-N
MDA-MB-231 = system: MDA-MB-231
SK-MEL-5 = system: SK-MEL-5
OVCAR-4 = system: OVCAR-4
IGROV-1 = system: IGROV-1
COLO 205 = system: COLO 205
OVCAR-8 = system: OVCAR-8
M14 = system: M14
K562 = system: K562
LOX IMVI = system: LOX IMVI
MOLT-4 = system: MOLT-4
T47D = system: T47D
UO-31 = system: UO-31
SF-539 = system: SF-539

In the case of `CNc1c2cccc(C)c2nc2c(C(=O)NCCN(C)C)cccc12`, the GI50 (KM12) is reported as 0.127 µM (active), the GI50 (SNB-75) is reported as 0.051 µM (active) and the GI50 (HL-60) is reported as 0.0847 µM (active). For the same compound, the GI50 (ACHN) was < 0.024 µM (active), the GI50 (UACC-257) was 0.211 µM (active) and the GI50 (HCC 2998) was 0.0322 µM (active). For the same compound, the GI50 (SK-MEL-2) was 0.309 µM (active), the GI50 (786-0) was 0.104 µM (active) and the GI50 (NCI/ADR-RES) was 0.265 µM (active). For the same compound, the GI50 (CAKI-1) was < 0.0344 µM (active), the GI50 (SF-295) was 0.0586 µM (active) and the GI50 (NCI-H522) was < 0.01 µM (active). The GI50 (DU-145) was 0.0946 µM (active), the GI50 (TK-10) was 0.128 µM (active) and the GI50 (SW-620) was < 0.0288 µM (active). For the same compound, the GI50 (EKVX) was 0.151 µM (active), the GI50 (A549) was 0.034 µM (active) and the GI50 (SR) was < 0.0288 µM (active). The GI50 (HOP-62) was 0.164 µM (active), the GI50 (SF-268) was 0.0445 µM (active) and the GI50 (NCI-H23) was 0.107 µM (active). The GI50 (HCT-116) was 0.0377 µM (active), the GI50 (CCRF-CEM) was 0.0374 µM (active) and the GI50 (HOP-92) was 0.122 µM (active). For the same compound, the GI50 (UACC-62) was 0.167 µM (active), the GI50 (MCF7) was < 0.045 µM (active) and the GI50 (OVCAR-5) was 0.162 µM (active). For the same compound, the GI50 (PC-3) was 0.158 µM (active), the GI50 (Malme-3M) was 0.169 µM (active) and the GI50 (SN12C) was 0.0282 µM (active). For the same compound, the GI50 (RXF 393) was 0.0716 µM (active), the GI50 (SNB-19) was 0.0805 µM (active) and the GI50 (Hs-578T) was 0.0957 µM (active). The GI50 (BT-549) was 1.04 µM (active), the GI50 (HCT-15) was 0.115 µM and the GI50 (NCI-H460) was 0.0435 µM (active). The GI50 (U-251) was 0.149 µM (active), the GI50 (SK-MEL-28) was 0.45 µM (active) and the GI50 (OVCAR-3) was 0.214 µM (active). The GI50 (A498) was 0.213 µM (active), the GI50 (RPMI-8226) was 0.0604 µM (active) and the GI50 (HT-29) was < 0.0197 µM (active). For the same compound, the GI50 (NCI-H226) was 0.116 µM (active), the GI50 (SK-OV-3) was 0.252 µM (active) and the GI50 (MDA-MB-435) was 0.152 µM (active). For the same compound, the GI50 (MDA-N) was 0.0841 µM (active), the GI50 (MDA-MB-231) was < 0.0498 µM (active) and the GI50 (SK-MEL-5) was 0.18 µM (active). For the same compound, the GI50 (OVCAR-4) was < 0.01 µM (active), the GI50 (IGROV-1) was 0.0483 µM (active) and the GI50 (COLO 205) was 0.0423 µM (active). The GI50 (OVCAR-8) was 0.07 µM (active), the GI50 (M14) was 0.207 µM (active) and the GI50 (K562) was 0.0249 µM (active). For the same compound, the GI50 (LOX IMVI) was 0.112 µM (active), the GI50 (MOLT-4) was < 0.0208 µM (active) and the GI50 (T47D) was 0.162 µM (active). For the same compound, the GI50 (UO-31) was 0.2 µM (active).

For `N#CC1=C(S)N(C2OC(CO)C(O)C(O)C2O)C(c2ccccc2)=CC1c1cccs1` (stereo unspecified), the GI50 (KM12) was 18.8 µM (inactive), the GI50 (SNB-75) was 20.5 µM (inactive) and the GI50 (HL-60) was 28.9 µM (inactive). The GI50 (ACHN) was 18.7 µM (inactive), the GI50 (UACC-257) was 21.7 µM (inactive) and the GI50 (HCC 2998) was 21.7 µM (inactive). The GI50 (SK-MEL-2) was 22.5 µM (inactive), the GI50 (786-0) was 16.5 µM (inactive) and the GI50 (NCI/ADR-RES) was > 100 µM (inactive). The GI50 (CAKI-1) was 23.1 µM (inactive), the GI50 (SF-295) was 17.5 µM (inactive) and the GI50 (NCI-H522) was 18.1 µM (inactive). For the same compound, the GI50 (DU-145) was > 10 µM (inactive), the GI50 (TK-10) was 29 µM (inactive) and the GI50 (SW-620) was 16.6 µM (inactive). For the same compound, the GI50 (A549) was 20 µM (inactive), the GI50 (SR) was 23 µM (inactive) and the GI50 (HOP-62) was 22.1 µM (inactive). The GI50 (SF-268) was 24.8 µM (inactive), the GI50 (NCI-H23) was 28.1 µM (inactive) and the GI50 (HCT-116) was 26.3 µM (inactive). The GI50 (CCRF-CEM) was 22.3 µM (inactive), the GI50 (HOP-92) was 23.3 µM (inactive) and the GI50 (UACC-62) was 18.8 µM (inactive). The GI50 (MCF7) was 15.3 µM (inactive), the GI50 (OVCAR-5) was 51.1 µM (inactive) and the GI50 (PC-3) was 15.1 µM (inactive). For the same compound, the GI50 (Malme-3M) was 19.3 µM (inactive), the GI50 (SN12C) was 14.7 µM (inactive) and the GI50 (RXF 393) was 20 µM (inactive). The GI50 (SNB-19) was > 10 µM (inactive), the GI50 (Hs-578T) was 23.4 µM (inactive) and the GI50 (BT-549) was 16.1 µM (inactive). The GI50 (HCT-15) was 32.7 µM, the GI50 (NCI-H460) was 17.7 µM (inactive) and the GI50 (U-251) was 20 µM (inactive). For the same compound, the GI50 (SK-MEL-28) was 21.1 µM (inactive), the GI50 (OVCAR-3) was 27.9 µM (inactive) and the GI50 (A498) was > 10 µM (inactive). The GI50 (RPMI-8226) was 26.3 µM (inactive), the GI50 (HT-29) was 17 µM (inactive) and the GI50 (NCI-H226) was 16.6 µM (inactive). For the same compound, the GI50 (MDA-MB-435) was 20.3 µM (inactive), the GI50 (MDA-N) was 15.4 µM (inactive) and the GI50 (SF-539) was 18.6 µM (inactive). For the same compound, the GI50 (MDA-MB-231) was 27.2 µM (inactive), the GI50 (SK-MEL-5) was 14.1 µM (inactive) and the GI50 (OVCAR-4) was 33.8 µM (inactive). For the same compound, the GI50 (IGROV-1) was 22.6 µM (inactive), the GI50 (COLO 205) was 21.1 µM (inactive) and the GI50 (OVCAR-8) was 22.3 µM (inactive). For the same compound, the GI50 (M14) was 33.3 µM (inactive), the GI50 (K562) was 31.1 µM (inactive) and the GI50 (LOX IMVI) was 18.7 µM (inactive). For the same compound, the GI50 (MOLT-4) was 22.7 µM (inactive), the GI50 (T47D) was 19.2 µM (inactive) and the GI50 (UO-31) was 48.8 µM (inactive).

In the case of `O=C1C(N2CCCC2)=CC(=O)c2c(O)c(N3CCCC3)c(Cl)c(O)c21`, the GI50 (KM12) is reported as > 10 µM (inactive), the GI50 (SNB-75) is reported as > 10 µM (inactive) and the GI50 (HL-60) is reported as > 10 µM (inactive). For the same compound, the GI50 (ACHN) was > 10 µM (inactive), the GI50 (UACC-257) was > 10 µM (inactive) and the GI50 (HCC 2998) was > 10 µM (inactive). The GI50 (SK-MEL-2) was > 10 µM (inactive), the GI50 (786-0) was > 10 µM (inactive) and the GI50 (NCI/ADR-RES) was > 10 µM (inactive). The GI50 (CAKI-1) was > 10 µM (inactive), the GI50 (SF-295) was > 10 µM (inactive) and the GI50 (NCI-H522) was > 10 µM (inactive). For the same compound, the GI50 (DU-145) was > 10 µM (inactive), the GI50 (TK-10) was > 10 µM (inactive) and the GI50 (SW-620) was > 10 µM (inactive). The GI50 (EKVX) was > 10 µM (inactive), the GI50 (A549) was > 10 µM (inactive) and the GI50 (SR) was > 10 µM (inactive). The GI50 (HOP-62) was > 10 µM (inactive), the GI50 (SF-268) was > 10 µM (inactive) and the GI50 (NCI-H23) was > 10 µM (inactive). The GI50 (HCT-116) was > 10 µM (inactive), the GI50 (CCRF-CEM) was > 10 µM (inactive) and the GI50 (HOP-92) was > 10 µM (inactive). For the same compound, the GI50 (UACC-62) was > 10 µM (inactive), the GI50 (MCF7) was > 10 µM (inactive) and the GI50 (PC-3) was > 10 µM (inactive). The GI50 (Malme-3M) was > 10 µM (inactive), the GI50 (SN12C) was > 10 µM (inactive) and the GI50 (RXF 393) was > 10 µM (inactive). The GI50 (SNB-19) was > 10 µM (inactive), the GI50 (Hs-578T) was > 10 µM (inactive) and the GI50 (BT-549) was > 10 µM (inactive). The GI50 (NCI-H460) was > 10 µM (inactive), the GI50 (U-251) was > 10 µM (inactive) and the GI50 (SK-MEL-28) was > 10 µM (inactive). The GI50 (OVCAR-3) was > 10 µM (inactive), the GI50 (A498) was > 10 µM (inactive) and the GI50 (RPMI-8226) was > 10 µM (inactive). For the same compound, the GI50 (HT-29) was > 10 µM (inactive), the GI50 (NCI-H226) was > 10 µM (inactive) and the GI50 (SK-OV-3) was > 10 µM (inactive). For the same compound, the GI50 (MDA-MB-435) was > 10 µM (inactive), the GI50 (MDA-N) was > 10 µM (inactive) and the GI50 (SF-539) was > 10 µM (inactive). The GI50 (MDA-MB-231) was > 10 µM (inactive), the GI50 (SK-MEL-5) was > 10 µM (inactive) and the GI50 (OVCAR-4) was > 10 µM (inactive). For the same compound, the GI50 (IGROV-1) was > 10 µM (inactive), the GI50 (COLO 205) was > 10 µM (inactive) and the GI50 (M14) was > 10 µM (inactive). For the same compound, the GI50 (K562) was > 10 µM (inactive), the GI50 (LOX IMVI) was > 10 µM (inactive) and the GI50 (MOLT-4) was > 10 µM (inactive). The GI50 (T47D) was > 10 µM (inactive) and the GI50 (UO-31) was > 10 µM (inactive).
